# Assay results published in patent publication US20220142958A1, “MEDICINAL COMPOSITION HAVING EXCELLENT STABILITY” (EA Pharma Co., Ltd., priority 2019, published 2022).
# What was measured:
# Type in all cases: in vivo, rat
# [1] = system: bilaterally nephrectomized rats; test: Survival of bilaterally nephrectomized rats after single doses; settings: for number of rats surviving (of five per group): 48 hours after the administration
# Text: (§1) After quarantine and acclimatization periods of 6 days, fifty-one rats (Crl: CD (SD), male) aged 7 weeks were fed a 100% sucrose diet ad libitum from four days before the surgery. On the day of the surgery, skin incisions were made on the back at the sites of the right and left kidneys under isoflurane anesthesia and the renal capsules were removed to ligate the renal arteries and veins and the ureters using threads before removing the right and left kidneys. A penicillin solution was given upon suturing, and 5 mL of physiological saline was intraperitoneally administered before returning the rats into the breeding cages.
# (§2) On a day after the bilaterally nephrectomy, the given doses were calculated based on the weight of the selected animals on that day. Group 1 was given a medium (physiological saline), Groups 2, 3 and 4 were given the Compound A1 solution (0.3, 3 and 30 mg/mL, respectively), and Groups 5, 6, 7 and 8 (5 rats per group) were given the comparative compound (0.3, 1, 3 and 10 mg/mL, respectively), each given a single dose of 1 ml/kg from the tail vein. Prior to the administration (0 hours), and 24 and 48 hours after the administration, approximately 300 μL of blood was collected without anesthesia from the tail vein using capillary tubes for obtaining the serum. The blood for obtaining the serum was left to stand at room temperature, and centrifuged in a high speed refrigerated microcentrifuge (10,000 rpm, 5 min, 4° C.) within a period of 30 minutes to 2 hours after the blood collection to collect the serum.
# serum Ca concentration = test: Serum Ca concentration in bilaterally nephrectomized rats after single intravenous administration
# Text: as §1
# (§3) On the day of administering the test substance, for example, a day after the bilaterally nephrectomy, approximately 100 μL of blood was collected from the tail vein without anesthesia using a capillary tube, which was centrifuged in a high speed refrigerated microcentrifuge (10,000 rpm, 5 min, 4° C.) to separate the serum. Thereafter, the serum Ca concentration was measured with a dri-chemanalyzer (model number: FUJI DRI-CHEM 7000, manufacturer: FUJI FILM Medical Co., Ltd.) to select individuals with a serum Ca concentration of 8.0 mg/dL or more and less than 14.0 mg/dL.
# as §2
# (§4) Thereafter, the serum Ca was analyzed with COBAS analyzer (Model number: COBAS INTEGRA 400 plus, manufacturer: Roche Diagnostics K.K.), and the remaining serum was stored in an ultra-low freezer (temperature set to −80±15° C.) until the day of iPTH measurement. On the day of iPTH measurement, the serum was melted at room temperature for measurement.
# (§5) A 30 mg/ml Compound A1 solution ([…] of Compound A1 dissolved in 10 ml of physiological saline) was diluted with physiological saline to prepare 0.3 mg/ml and […] Compound A1 solutions.
# (§6) 149 mg of etelcalcetide (Ac-c(C) arrrar-NH2) TFA salt (WO 2011/014707 A) was prepared to have pH of 6 to 8 with 7 ml of physiological saline and a 0.5N aqueous NaOH solution, and physiological saline was further added thereto to make 10 ml. The prepared 10 mg/ml comparative compound solution was diluted with physiological saline to obtain 0.3 mg/ml and 1 mg/ml comparative compound solutions.
# [2] = Estimated plasma concentration in bilaterally nephrectomized rats; settings: 48 hours after single intravenous administration at 3 mg/kg
# serum iPTH concentration = test: Serum iPTH concentration in bilaterally nephrectomized rats after single intravenous administration
# Text: as §1, §3, §2, §4, §5, §6
# [3] = 0.3 mg/kg single i.v., 24 hours after the administration
# [4] = 0.3 mg/kg single i.v., 48 hours after the administration
# [5] = 1 mg/kg single i.v., 24 hours after the administration
# [6] = 1 mg/kg single i.v., 48 hours after the administration
# [7] = 3 mg/kg single i.v., 24 hours after the administration
# [8] = 3 mg/kg single i.v., 48 hours after the administration
# [9] = 10 mg/kg single i.v., 24 hours after the administration
# [10] = 10 mg/kg single i.v., 48 hours after the administration (n=1)
# [11] = logistic curve fitting, 48 hours after the administration vs given dose
smiles,measurement,setting,value
"CC(=O)N[C@H](CSSC[C@H](N)C(=O)O)C(=O)N[C@H](C)C(=O)N[C@H](CCCNC(=N)N)C(=O)N[C@H](CCCNC(=N)N)C(=O)N[C@H](CCCNC(=N)N)C(=O)N[C@H](C)C(=O)N[C@H](CCCNC(=N)N)C(N)=O [comparative compound, etelcalcetide]",number of rats surviving (of five per group),[1]; 3 mg/kg group,four
same,number of rats surviving (of five per group),[1]; 10 mg/kg group,one
same,number of dead rats,[1]; relation to dose,increased in a dose-dependent manner
same,mean serum Ca concentration,serum Ca concentration; [3],8.33 mg/dL
same,mean serum Ca concentration,serum Ca concentration; [4],10.44 mg/dL
same,mean serum Ca concentration,serum Ca concentration; [5],6.42 mg/dL
same,mean serum Ca concentration,serum Ca concentration; [6],7.33 mg/dL
same,mean serum Ca concentration,serum Ca concentration; [7],6.82 mg/dL
same,mean serum Ca concentration,serum Ca concentration; [8],5.85 mg/dL
same,mean serum Ca concentration,serum Ca concentration; [9],6.95 mg/dL
same,mean serum Ca concentration,serum Ca concentration; [10],6.65 mg/dL
same,lower limit value of the serum Ca concentration (simulated),serum Ca concentration; [11],5.880 mg/dL
same,plasma concentration (estimated),[2],130 ng/mL
same,mean serum iPTH concentration,serum iPTH concentration; [3],122 pg/mL
same,mean serum iPTH concentration,serum iPTH concentration; [4],510 pg/mL
same,mean serum iPTH concentration,serum iPTH concentration; [5],52 pg/mL
same,mean serum iPTH concentration,serum iPTH concentration; [6],280 pg/mL
same,mean serum iPTH concentration,serum iPTH concentration; [7],22 pg/mL
same,mean serum iPTH concentration,serum iPTH concentration; [8],41 pg/mL
same,mean serum iPTH concentration,serum iPTH concentration; [9],104 pg/mL
same,mean serum iPTH concentration,serum iPTH concentration; [10],230 pg/mL
same,lower limit value of the serum iPTH concentration (simulated),serum iPTH concentration; [11],48.18 pg/mL
same,"50% effective concentration, EC50 value, for decreasing the serum iPTH concentration","serum iPTH concentration; plasma concentration, rats",0.04 µg/mL
same,decrease of serum iPTH and Ca concentrations,"serum iPTH concentration; renal failure rat models, during 48 hours after the administration, relation to dose",in a dose-dependent manner
